The values that follow come from patent US20080152640A1, “Means and Methods For Treating a Disease Which is Associated With an Excess Transport of Hyaluronan Across a Lipid Bilayer” (priority 2003, published 2008).

pIC50: −log10 of the molar value.

Assay [1] deals with MRP1 (Homo sapiens, UniProt P33527). The conditions noted are these: read-out: published inhibitory concentrations IC50 or Ki, MRP1; cited from earlier work.
Assay [2] deals with T1, MRP7 (Homo sapiens, UniProt Q5T3U5).
T1 sequence (Q5T3U5 1-1492): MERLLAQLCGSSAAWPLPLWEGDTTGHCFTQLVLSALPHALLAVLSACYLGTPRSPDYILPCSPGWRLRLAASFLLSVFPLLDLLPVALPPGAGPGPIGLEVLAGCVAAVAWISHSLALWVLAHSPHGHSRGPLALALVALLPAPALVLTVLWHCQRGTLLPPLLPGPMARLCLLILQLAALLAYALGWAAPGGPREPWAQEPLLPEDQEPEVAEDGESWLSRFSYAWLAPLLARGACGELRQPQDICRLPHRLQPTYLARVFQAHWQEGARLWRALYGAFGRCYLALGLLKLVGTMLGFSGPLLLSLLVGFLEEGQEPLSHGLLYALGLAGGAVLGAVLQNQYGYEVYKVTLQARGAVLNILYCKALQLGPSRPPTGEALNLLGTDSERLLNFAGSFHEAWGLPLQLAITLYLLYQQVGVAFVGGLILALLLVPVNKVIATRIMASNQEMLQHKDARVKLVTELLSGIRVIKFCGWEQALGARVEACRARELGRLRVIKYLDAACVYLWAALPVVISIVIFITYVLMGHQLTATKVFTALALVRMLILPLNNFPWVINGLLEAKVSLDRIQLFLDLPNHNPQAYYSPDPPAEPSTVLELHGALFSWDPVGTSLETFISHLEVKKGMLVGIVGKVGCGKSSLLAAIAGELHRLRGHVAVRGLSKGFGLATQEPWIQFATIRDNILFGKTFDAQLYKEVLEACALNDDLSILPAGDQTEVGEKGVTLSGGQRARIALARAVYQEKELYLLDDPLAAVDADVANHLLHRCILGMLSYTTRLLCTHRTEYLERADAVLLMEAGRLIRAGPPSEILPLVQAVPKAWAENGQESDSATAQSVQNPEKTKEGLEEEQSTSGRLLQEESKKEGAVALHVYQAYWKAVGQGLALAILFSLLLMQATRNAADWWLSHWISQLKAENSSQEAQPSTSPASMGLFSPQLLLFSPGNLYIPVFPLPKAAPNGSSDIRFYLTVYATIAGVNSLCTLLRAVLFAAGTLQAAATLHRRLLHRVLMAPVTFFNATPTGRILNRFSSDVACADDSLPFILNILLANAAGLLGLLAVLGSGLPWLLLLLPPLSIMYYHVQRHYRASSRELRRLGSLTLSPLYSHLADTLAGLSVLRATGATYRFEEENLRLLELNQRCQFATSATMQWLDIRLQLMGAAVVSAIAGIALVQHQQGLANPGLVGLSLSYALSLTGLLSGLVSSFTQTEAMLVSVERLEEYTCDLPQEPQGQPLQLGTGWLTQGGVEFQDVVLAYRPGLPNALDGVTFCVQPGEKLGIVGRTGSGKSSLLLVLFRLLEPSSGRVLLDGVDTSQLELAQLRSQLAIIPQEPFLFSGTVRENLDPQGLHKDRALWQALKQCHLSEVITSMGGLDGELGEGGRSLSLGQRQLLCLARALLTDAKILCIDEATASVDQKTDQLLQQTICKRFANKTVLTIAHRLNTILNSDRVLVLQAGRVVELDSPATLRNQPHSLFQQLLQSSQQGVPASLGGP
The conditions noted are these: cited from earlier work.

In assay [3] the test system is hyaluronan synthase. To be noted: read-out: HA synthase activity (IC50); membranes of human fibroblasts.

Sequence of MRP1 (P33527 whole entry): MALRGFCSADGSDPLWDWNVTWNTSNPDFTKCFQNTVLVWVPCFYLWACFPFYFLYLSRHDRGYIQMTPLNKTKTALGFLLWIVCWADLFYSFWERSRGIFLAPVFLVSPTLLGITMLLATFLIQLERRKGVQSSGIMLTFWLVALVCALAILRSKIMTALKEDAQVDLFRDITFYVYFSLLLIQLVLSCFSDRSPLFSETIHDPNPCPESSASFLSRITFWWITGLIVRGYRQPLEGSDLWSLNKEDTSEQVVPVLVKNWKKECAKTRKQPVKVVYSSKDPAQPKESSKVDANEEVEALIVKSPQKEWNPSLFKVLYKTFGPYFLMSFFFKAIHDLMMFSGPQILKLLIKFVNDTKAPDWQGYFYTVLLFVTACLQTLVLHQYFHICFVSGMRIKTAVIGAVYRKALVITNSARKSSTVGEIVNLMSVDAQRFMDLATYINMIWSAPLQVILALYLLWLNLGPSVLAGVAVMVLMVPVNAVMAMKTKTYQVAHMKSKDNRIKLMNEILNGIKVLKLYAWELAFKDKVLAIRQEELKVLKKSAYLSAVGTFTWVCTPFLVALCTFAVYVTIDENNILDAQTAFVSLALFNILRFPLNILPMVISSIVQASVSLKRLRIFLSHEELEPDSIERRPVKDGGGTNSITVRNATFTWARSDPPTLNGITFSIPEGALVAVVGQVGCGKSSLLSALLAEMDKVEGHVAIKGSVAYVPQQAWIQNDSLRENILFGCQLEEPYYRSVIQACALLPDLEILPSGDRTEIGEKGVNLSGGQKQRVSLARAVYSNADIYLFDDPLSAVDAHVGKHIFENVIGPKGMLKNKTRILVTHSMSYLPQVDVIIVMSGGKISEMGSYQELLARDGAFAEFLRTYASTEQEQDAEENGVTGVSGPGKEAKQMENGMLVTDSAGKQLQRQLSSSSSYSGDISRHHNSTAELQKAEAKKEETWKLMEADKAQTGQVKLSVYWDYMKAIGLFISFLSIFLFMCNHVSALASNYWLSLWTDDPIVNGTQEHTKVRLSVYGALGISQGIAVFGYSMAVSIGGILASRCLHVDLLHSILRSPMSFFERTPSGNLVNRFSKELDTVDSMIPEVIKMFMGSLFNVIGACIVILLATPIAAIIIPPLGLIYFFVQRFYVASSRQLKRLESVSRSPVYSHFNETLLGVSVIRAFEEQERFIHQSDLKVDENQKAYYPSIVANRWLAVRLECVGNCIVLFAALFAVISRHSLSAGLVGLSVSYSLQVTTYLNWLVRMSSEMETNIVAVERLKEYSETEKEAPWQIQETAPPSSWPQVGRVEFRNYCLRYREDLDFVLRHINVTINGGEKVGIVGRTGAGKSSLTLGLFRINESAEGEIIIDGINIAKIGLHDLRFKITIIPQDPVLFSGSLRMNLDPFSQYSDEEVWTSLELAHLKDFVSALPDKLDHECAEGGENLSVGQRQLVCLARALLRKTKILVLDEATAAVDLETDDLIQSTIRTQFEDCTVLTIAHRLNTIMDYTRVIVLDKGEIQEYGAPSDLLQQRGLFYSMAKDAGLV

Consider `CCCN(CCC)S(=O)(=O)c1ccc(C(=O)O)cc1` [Probenecid], for which, in assay [1], the pIC50 is 3.70 to 4.00. Also, in assay [2], the “inhibition of 17β-glucuronosyl-estradiol export by MRP7” value is “weak inhibitor” and the “published inhibitory concentrations IC50 or Ki, MRP7” value is “weak”. For the same compound, the pIC50 in assay [3] was 3.70.
